| SMILES | pKa (acidic group) | pKa (basic group) |
| --- | --- | --- |
| c1ccc(CCNc2ncnc3nc[nH]c23)cc1 | 10.1 | 4.2 |
| O=C(O)[C@@H]1O[C@H](Oc2ccc(Br)cc2)[C@@H](O)[C@H](O)[C@H]1O | 3.02 |  |
| On1nnc2ccccc21 | 4.6 |  |
| Nc1ccc2nnccc2c1 |  | 5.04 |
| CC(=O)Sc1ccc(O)cc1 | 8.88 |  |
| CCCC[NH2+]CC(=O)O | 2.32 |  |
| CC(C(=O)c1ccccc1)[n+]1ccccc1 (stereo not drawn) | 11.5 |  |
| COc1ccc(CCN)cc1OC |  | 9.87 |
| O=C(O)C1CCCCn2nnnc21 (stereo not drawn) | 3.4 |  |
| Cn1nc(Cl)nc1NN=O | 4.03 |  |
| Nc1nccc2c1ncn2CCOCP(=O)([O-])[O-] |  | 7.87 |
| C1CNC[NH2+]C1 |  | 4.71 |
| O=C1Cc2cc(O)ccc21 | 7.24 |  |
| CC1(C)S[C@H]2[C@@H](NC(=O)Cc3ccccc3)C(=O)N2[C@@H]1C(=O)O | 2.76 |  |
| Cc1cccc(CN(C)C)c1O | 11.1 | 8.18 |
| Cc1cc(C)c(C)c(C(=O)O)c1C | 3.43 |  |
| ON=C(c1ccccc1)c1ccccc1 | 11.3 |  |
| Cc1ccccc1/C(=N/CCC[NH+](C)C)c1ccc2ccccc2c1 |  | 4.54 |
| CC(Cl)CN (stereo not drawn) |  | 8.54 |
| Cc1ccc(C(C)C)cc1O | 10.3 |  |
| Cn1ncc2cncnc21 |  | 2.5 |
| O=[N+]([O-])c1ccc(O)c(C[NH+]2CCOCC2)c1 | 5.61 |  |
| CC[NH+](CC)CCNc1cc(Nc2ccc(Cl)cc2)nc(C)n1 |  | 5.42 |
| CC(O)CN(CCO)C(C)(C)C (stereo not drawn) |  | 9.2 |

| SMILES | pKa (acidic group) | pKa (basic group) |
| --- | --- | --- |
| O=C1N[C@@H](Cc2cnc[nH]2)C(=O)N[C@H]1Cc1cnc[nH]1 |  | 6.54 |
| Nc1cccc(Br)c1 |  | 3.41 |
| c1cc[n+]2c(c1)C[n+]1ccccc1C2 | 8.12 |  |
| CCN1CCC[C@@H]1CNC(=O)c1c([O-])c(Br)cc(Br)c1OC |  | 9.12 |
| CCC[NH2+]CCN |  | 7.54 |
| CN[C@H]1CCCC[C@@H]1O |  | 10.2 |
| Cc1cc(O)n[nH]1 | 10.9 |  |
| Oc1cc2ccccc2n[nH+]1 | 0.21 |  |
| COc1ccc(C(=S)Nc2ccc(Br)cc2)cc1 | 10.9 |  |
| Cc1cccc(O)c1C(=O)Oc1ccccc1 | 8.63 |  |
| N=C1C=C(N)C(=O)c2ccccc21 |  | 8.87 |
| NS(=O)(=O)C(F)(F)I | 6.79 |  |
| CC(=O)CC(=O)Nc1cccc(C)c1 | 10 |  |
| Cc1ccc(NC(=O)CN2CCCCC2)c(C)c1 |  | 7.8 |
| CC(=O)/N=c1\sc(S(N)(=O)=O)nn1C | 7.3 |  |
| CCCC(=O)SCCN(C)C |  | 8.32 |
| Oc1cccc2c1-c1ccccc1-2 | 8.64 |  |
| C[N+](C)(C)CCc1ccccc1O | 9.57 |  |
| Nc1ccc2ncncc2c1 |  | 3.29 |
| Cc1nc2ccccc2n(C)c1=O |  | 0.51 |
| C[Si](C)(CCN)O[Si](C)(C)CCN |  | 10.7 |
| CC(C)(C)Cc1ccc(O)cc1 | 10.7 |  |
| Cc1cc(-c2ccccc2)nn2cc(C[NH+]3CCOCC3)nc12 |  | 1.5 |
| CCC#CC(=O)O | 2.6 |  |

| SMILES | pKa (acidic group) | pKa (basic group) |
| --- | --- | --- |
| Cc1cc(C#N)cc(C)[n+]1O | -0.61 |  |
| O=C(O)CCc1ccoc1 | 4.44 |  |
| Cc1ccc(OC(O)(CBr)c2ccccc2)cc1 (stereo not drawn) | 11.2 |  |
| NCC(=O)NCCc1c[nH]cn1 |  | 8.04 |
| CCCC[C@H]([NH3+])C(=O)O | 2.39 |  |
| O=C(N/N=C/c1ccccc1O)c1ccncc1 | 8.31 | 3.33 |
| C[Se](=O)O | 5.19 |  |
| C[n+]1c([S-])nc([O-])c2ccccc21 |  | 9.23 |
| CC(C)=NNC1CCN(C)CC1 |  | 8.9 |
| O=C(CN1CCOCC1)NCc1ccccc1 |  | 4.98 |
| CCCCCC(C)NC (stereo not drawn) |  | 11 |
| NC(=O)NOCCC(N)C(=O)[O-] (stereo not drawn) |  | 8.9 |
| CC1(C)S[C@H]2C(C(=O)[O-])[NH+]=C(CCCC(N)C(=O)[O-])N2C1C(=O)[O-] (stereo partly drawn) |  | 7.6 |
| O=S(=O)(Nc1nccs1)c1ccccc1 | 5.73 |  |
| CCc1ccc(/N=N/c2ccc(N(C)C)cc2)cc1CC |  | 2.58 |
| CC(C=C(c1cccs1)c1cccs1)N1CCCCCCC1 (stereo not drawn) |  | 7.52 |
| Nc1nnc(-c2ccccc2)s1 |  | 2.9 |
| Oc1cn[nH+]c2ccccc12 | -0.35 |  |
| N[C@H]1CCC[C@@H]1O |  | 9.28 |
| c1ccc2ncncc2c1 |  | 3.51 |
| O=C([O-])/C=C/c1ccccc1O | 9.63 |  |
| CCCCCP(=O)(O)CCCCC | 3.23 |  |
| O=C(Nc1ccccn1)c1ccccc1 |  | 3.33 |
| CN1CC[C@]23c4c5ccc(OCc6ccccc6)c4O[C@H]2[C@@H](O)C=C[C@H]3[C@H]1C5 |  | 8.07 |

| SMILES | pKa (acidic group) | pKa (basic group) |
| --- | --- | --- |
| [O-]c1cccc2c1-c1c(O)cccc1-2 | 11 |  |
| Cc1cnccc1N |  | 9.15 |
| O=C([O-])c1cccc2ccc(O)cc12 | 9.6 |  |
| O=C(O)c1ccc(CCl)cc1 | 4.13 |  |
| O=C([O-])[C@@H]1CC[C@@H](C(=O)O)[Se][Se]1 | 3.67 |  |
| c1ccc(Nc2nnn[nH]2)cc1 | 6.3 |  |
| c1ncc2cn[nH]c2n1 | 9.54 | 2.84 |
| O=c1[nH]c(=O)c2ncn([C@H]3O[C@@H](CO)[C@H](O)[C@@H]3O)c2[nH]1 | 5.72 |  |
| O=[PH](O)c1ccccc1 | 1.63 |  |
| N#Cc1ccc(-c2nnn[nH]2)cc1 | 3.53 |  |
| COc1ccc(C(=O)c2cc[nH]n2)cc1 | 12.1 |  |
| Cc1cc(-c2ncc[nH]2)n[nH]1 |  | 6.16 |
| O=C(O)C(c1ccc(-c2ccccc2)cc1)C(O)Cc1ccccc1 (stereo not drawn) | 4.29 |  |
| Nc1ccnc(N)n1 |  | 7.26 |
| Cn1n[n+](C)nc1N | 2.5 |  |
| Oc1ccc(-c2ccccc2)cc1 | 9.47 |  |
| Cc1nc2c(n1C)C(=O)c1nc[nH+]c(O)c1C2=O | 1.15 |  |
| CN |  | 10.8 |
| C[N+]1(CCC(=O)O)CCCCC1 | 3.43 |  |
| CCC(=O)CC(C)=O | 9.36 |  |
| NNC(=O)c1ccccc1[NH3+] |  | 1.85 |
| C[N+](C)(C)Cc1ccc(O)cc1 | 8.75 |  |
| O=C(O)c1ccc2sc(Cn3cc[nH+]c3)cc2c1 | 3.9 |  |
| Cc1cc(Cl)ccc1C(=O)O | 3.75 |  |

| SMILES | pKa (acidic group) | pKa (basic group) |
| --- | --- | --- |
| CN1CCCC[C@H]1c1cccnc1 |  | 5.42 |
| CN(C)/C=N/c1cccc(Br)c1 |  | 8.08 |
| O=C(O)c1csc2ccccc12 | 4.24 |  |
| CC(C)NCC[NH2+]C(C)C |  | 7.59 |
| O=[N+]([O-])c1cc(CN2CCCCC2)c([O-])c2ccccc12 |  | 10.7 |
| O=S(Cc1ccccc1)c1cnn[nH]1 (stereo not drawn) | 6.09 |  |
| [NH3+]CCC(=O)N[C@@H](Cc1c[nH]c[nH+]1)C(=O)O | 2.7 |  |
| O=C([O-])[C@@H](NCCN[C@@H](C(=O)[O-])c1ccccc1[O-])c1ccccc1[O-] |  | 11.9 |
| Oc1ccc2ccncc2c1 | 8.88 | 5.7 |
| C=C[C@]1(O)CN2CC[C@H]1C[C@H]2[C@H](O)c1cc([O-])[nH+]c2ccccc12 |  | 7.65 |
| C[NH+](C)CCNCC[NH+](C)C |  | 3.84 |
| C[C@@H]([NH3+])C(=O)N1CCC[C@H]1C(=O)O | 3.04 |  |
| NNC(=O)c1ccccc1 | 12.4 | 3.02 |
| O=C(O)COc1ccc([N+](=O)[O-])cc1 | 2.89 |  |
| C[n+]1c2ccccc2nc2c(O)cccc21 | 4.85 |  |
| Cc1ccc2ccc3cccnc3c2n1 |  | 5.36 |
| CC(C)([SeH])C[NH3+] | 5.21 |  |
| [NH3+]CCc1ccncc1 |  | 4.98 |
| Cc1cc(O)ccc1[S+](C)C | 7.6 |  |
| Cc1ccccc1C(=NCCN(C)C)c1ccccc1C |  | 8.5 |
| Brc1cnc2c(ccc3cc(Br)cnc32)c1 |  | 3.9 |
| O=C(O)c1cscn1 | 3.64 | 2.9 |
| C[NH+]1CCC[C@H]1c1cccnc1 |  | 3.16 |
| Cc1ccc(OCC(=O)O)cc1 | 3.15 |  |

| SMILES | pKa (acidic group) | pKa (basic group) |
| --- | --- | --- |
| [S-]CCNCCc1ccccc1 |  | 10.3 |
| CC(=O)N1CS(=O)(=O)C[C@H]1C(=O)O | 2.23 |  |
| Cc1cccc(NS(=O)(=O)c2ccc(N)cc2)[n+]1[O-] | 5.9 |  |
| C[Se]CCN |  | 9.53 |
| C/N=C(/SC)c1ccccc1 | 6.42 |  |
| O=C1C(O)=C(c2ccccc2)C(=O)c2ccccc21 | 4.35 |  |
| Oc1oc(-c2ccccc2)nc1Cc1ccccc1 | 8.72 |  |
| CC1NCCc2c1[nH]c1ccc([N+](=O)[O-])cc21 (stereo not drawn) | 14.1 |  |
| Cc1ccc2nc3ccc(C)cc3cc2c1 |  | 4.5 |
| Cc1cccc(C)c1NC(=O)CN(C)C |  | 7.36 |
| OB(O)c1ccccc1 | 8.74 |  |
| Cc1ccnc2c(O)cccc12 | 8.44 |  |
| CC(c1cccc(Cl)c1)[N+](=O)[O-] (stereo not drawn) | 7.05 |  |
| C[N-]C(=O)Oc1ccc2c(c1)[C@@]1(C)CCN(C)[C@H]1N2C |  | 12.2 |
| O=[Se](O)c1ccccc1 | 4.79 | -0.9 |
| CCOC(=O)/C(=N/O)c1ccccc1 | 8.95 |  |
| Cn1cc[nH+]c1-c1ccccn1 |  | 0.4 |
| O=C(O)[C@@H]1CC[C@H](C(=O)O)S1 | 3.34 |  |
| CC(Cc1ccccc1)N(C)CCC#N (stereo not drawn) |  | 6.95 |
| CN1C(=O)C(C)(C)NC1=S | 10.8 |  |
| Nc1ccc(-c2nc3ccccc3s2)cc1 |  | 3 |
| c1cc(N2CCCC2)c2c(N3CCCC3)cccc2c1 |  | 9.97 |
| [O-]c1nc([O-])c2[nH]nnc2n1 |  | 9.3 |
| Cc1cc(O)[nH+]c2c1CCO2 | 2.42 |  |

| SMILES | pKa (acidic group) | pKa (basic group) |
| --- | --- | --- |
| CC(=O)c1cc([N+](=O)[O-])ccc1C(=O)O | 3.06 |  |
| CCOc1ccc(O)cc1 | 10.2 |  |
| CCN(CC)C(C)O (stereo not drawn) |  | 10.2 |
| O=C(O)CCc1ccsc1 | 4.45 |  |
| COc1nc(C)cc(O)[nH+]1 | 1.6 |  |
| N#Cc1ccc(CN)cc1 |  | 8.72 |
| O=C(C[n+]1cccc2c3ccccc3ccc21)c1ccc([N+](=O)[O-])cc1 | 9.45 |  |
| CSc1ccc(C(=O)O)cc1 | 4.23 |  |
| C[n+]1cccc2c3ccccc3[nH]c21 | 7.4 |  |
| CCCN(CCC)CCCNC(=O)/C=N/[O-] |  | 10.3 |
| CC(=O)C(C(C)=O)c1ccccc1 | 9.32 |  |
| O=C(O)c1[nH]c[nH+]c1C(=O)[O-] | 4.27 |  |
| O/N=C/c1ccc2c(c1)OCO2 | 10.8 |  |
| Cc1cc(N)ncn1 |  | 6.25 |
| C/C(=N\O)C(=O)CO | 9.16 |  |
| CCNCCN |  | 10.5 |
| CC(C)NCC(O)COc1ccccc1 (stereo not drawn) |  | 9.45 |
| C[Si](C)(C)c1cccc(N)c1 |  | 4.64 |
| O=C(O)CSc1[nH]c2cc3ccccc3cc2[nH+]1 | 1.9 |  |
| CC1(C)CC(=O)C(=NO)C(=O)C1 | 5.4 |  |
| O=C(O)C(CO)[NH2+]Cc1cc(Cl)ccc1O (stereo not drawn) | 2.12 |  |
